Results from the supplement of paper PMC3493320.

What follows are compounds tested on NCI-H295R (assay: IC50 (antiproliferative, ATP content)). Details: 48 h.
How it was run: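 In 1536-well plates, 1500 adrenocortical carcinoma cells per well were grown overnight in serum-free, ITS-supplemented DMEM before compounds were pin-transferred at 8 final concentrations (0.6 nM to 46 µM). After 48 h at 37 °C and 5% CO2, CellTiter-Glo luminescence was read following 20 min at room temperature and normalised to vehicle and positive-control wells. IC50 values came from logistic curve fits, with compounds lacking any concentration response listed as above the top dose.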

Question: How did the IC50 turn out when `FC1=CC2=C(O[C@H]([C@@](N)=O)C[C@@]([C@@]3=O)2NC(N3)=O)C=C1` was run?
Answer: > 46 µM

Question: How did the IC50 turn out when `FC(F)OC(Cl)C(F)(F)F` (stereo not given) was run?
Answer: > 46 µM

Question: With `CCOC(=O)CC(SP(=S)(OC)OC)C(=O)OCC` (stereo not given) as the compound, how does the IC50 read?
Answer: > 46 µM

Question: `CC(C)NC(C)Cc1ccc(I)cc1.Cl` (stereo not given) was tested. Which IC50 did it give?
Answer: > 46 µM

Question: How did the IC50 turn out when `CO/N=C(\C(=O)N[C@@H]1C(=O)N2C(C(=O)O)=C(C[N+]3(C)CCCC3)CS[C@H]12)c1csc(N)n1.Cl.O.[Cl-]` was run?
Answer: > 46 µM

Question: Which IC50 does the source give for `CCCCCCCCCCCCCC[n+]1ccc(C)cc1.[Cl-]` here?
Answer: > 46 µM

Question: `O[C@]([C@H]3CN(CCC3)CC/C=C(C2=C(C)C=CS2)/C1=C(C)C=CS1)=O.Cl` was tested. Which IC50 did it give?
Answer: > 46 µM

Question: With `C[C@](N)(Cc1ccc(O)cc1)C(=O)O` as the compound, how does the IC50 read?
Answer: > 46 µM

Question: Which IC50 does the source give for `O=C([C@@H](N(C)[C@]([C@H](CCC4)N4C([C@@H](CC)N5)=O)=O)CC2=CC=CC=C2)N(CCC1=O)C(C1)C(N[C@H](C(OC(C)[C@H](NC(C6=NC=CC=C6O)=O)C5=O)=O)C3=CC=CC=C3)=O` (stereo not given in full) here?
Answer: > 46 µM

Question: For `COc1ccc(C(=O)c2ccccc2O)c(O)c1`, which IC50 is on record?
Answer: > 46 µM

Question: For `c1ccc2sc(SNC3CCCCC3)nc2c1`, which IC50 is on record?
Answer: > 46 µM

Question: With `O=C(NNCNNC(=O)c1ccncc1)c1ccncc1` as the compound, how does the IC50 read?
Answer: > 46 µM

Question: `Cc1oc(=O)oc1CN1CCN(c2cc3c(cc2F)c(=O)c(C(=O)O)c2n3C(C)S2)CC1` (stereo not given) was tested. Which IC50 did it give?
Answer: > 46 µM

Question: For `COc6cc7N1C(=O)CC2OC\C=C5\CN3CC[C@@]4(C1[C@H]2[C@H]5C[C@H]34)c7cc6OC` (stereo not given in full), which IC50 is on record?
Answer: > 46 µM

Question: Which IC50 does the source give for `COc1cc(OC)cc(OC)c1` here?
Answer: > 46 µM

Question: For `Cc1ccc(C(=O)Nc2ccc(S(=O)(=O)O)c3cc(S(=O)(=O)O)cc(S(=O)(=O)O)c23)cc1NC(=O)c1cccc(NC(=O)Nc2cccc(C(=O)Nc3cc(C(=O)Nc4ccc(S(=O)(=O)O)c5cc(S(=O)(=O)O)cc(S(=O)(=O)O)c45)ccc3C)c2)c1`, which IC50 is on record?
Answer: > 46 µM

Question: Which IC50 does the source give for `CC(=O)Nc1ccc(OCC(O)CNC(C)C)cc1` (stereo not given) here?
Answer: > 46 µM

Question: Which IC50 does the source give for `CC(C(=O)O)c1ccc2c(c1)[nH]c1ccc(Cl)cc12` (stereo not given) here?
Answer: > 46 µM

Question: With `Cc1ncc([N+](=O)[O-])n1CC(C)O` (stereo not given) as the compound, how does the IC50 read?
Answer: > 46 µM

Question: With `C1CNCCN1.C[C@H](CCC(=O)O)[C@H]1CC[C@H]2[C@@H]3[C@H](O)C[C@@H]4C[C@H](O)CC[C@]4(C)[C@H]3C[C@H](O)[C@]12C` as the compound, how does the IC50 read?
Answer: > 46 µM

Question: Which IC50 does the source give for `ClC1C(Cl)C(Cl)C(Cl)C(Cl)C1Cl` (stereo not given) here?
Answer: > 46 µM

Question: `C(=Cc1ccncc1)c1ccccc1` was tested. Which IC50 did it give?
Answer: > 46 µM

Question: `C=C[C@]1(C)C[C@@H](OC(=O)CSC(C)(C)CNC(=O)[C@H](N)C(C)C)[C@]2(C)[C@H](C)CC[C@]3(CCC(=O)[C@H]32)[C@@H](C)[C@@H]1O` was tested. Which IC50 did it give?
Answer: > 46 µM

Question: For `CC(=O)N(O)CCCCCNC(=O)CCC(=O)N(O)CCCCCNC(=O)CCC(=O)N(O)CCCCCN.CS(=O)(=O)O`, which IC50 is on record?
Answer: > 46 µM

Question: With `CCOC(=O)COc1ccc2c(C)c(CCN(CC)CC)c(=O)oc2c1Cl.Cl` as the compound, how does the IC50 read?
Answer: > 46 µM

Question: Which IC50 does the source give for `O[C@H]1[C@](CC2)(C)[C@@](C)(C)[C@@H]2C1` here?
Answer: > 46 µM

Question: With `CCN(CC)CCCC(C)Nc1ccnc2cc(Cl)ccc12.O=P(O)(O)O.O=P(O)(O)O` (stereo not given) as the compound, how does the IC50 read?
Answer: > 46 µM

Question: `C1COC(NC(C2CC2)C2CC2)=N1` was tested. Which IC50 did it give?
Answer: > 46 µM

Question: For `Nc1cccc2c1CN(C1CCC(=O)NC1=O)C2=O` (stereo not given), which IC50 is on record?
Answer: > 46 µM

Question: With `CN1[C@@H](CC(=O)c2ccccc2)CCC[C@H]1C[C@H](O)c1ccccc1` as the compound, how does the IC50 read?
Answer: > 46 µM

Question: `C[N+](C)(C)CC(O)CC(=O)[O-].Cl` (stereo not given) was tested. Which IC50 did it give?
Answer: > 46 µM

Question: Which IC50 does the source give for `O=C(NCN1CCOCC1)c1cnccn1` here?
Answer: > 46 µM

Question: Which IC50 does the source give for `[Na+].C/C(C)=C\Cc1cc(ccc1O)C(=O)N\C3=C(/[O-])c4ccc(O[C@@H]2OC(C)(C)[C@H](OC)[C@@H](OC(N)=O)[C@H]2O)c(C)c4OC3=O` here?
Answer: > 46 µM

Question: How did the IC50 turn out when `[O]=[Cd]` was run?
Answer: > 46 µM

Question: For `CC(Cc1ccccc1)(NC(=O)CN)c1ccccc1.Cl` (stereo not given), which IC50 is on record?
Answer: > 46 µM

Question: `CCOc1cc(-c2nccc3cc(OC)c(OC)cc23)cc(OCC)c1OCC` was tested. Which IC50 did it give?
Answer: > 46 µM

Question: Which IC50 does the source give for `O=C(O)CN(CCOCCOCCN(CC(=O)O)CC(=O)O)CC(=O)O` here?
Answer: > 46 µM

Question: `CC(C)NCC(O)c1ccc(O)c(O)c1` (stereo not given) was tested. Which IC50 did it give?
Answer: > 46 µM

Question: Which IC50 does the source give for `C[C@@H]1[C@H](O)[C@@H](C)/C=C/C=C/C=C/C=C/C=C/C=C/C=C/[C@H](O[C@@H]2O[C@H](C)[C@@H](O)[C@H](N)[C@@H]2O)C[C@@H]2O[C@](O)(C[C@@H](O)C[C@@H](O)[C@H](O)CC[C@@H](O)C[C@@H](O)CC(=O)O[C@H]1C)C[C@H](O)[C@H]2C(=O)O` here?
Answer: > 46 µM

Question: For `CC(C)(C)CC(C)(C)c1cc(Cc2cc(C(C)(C)CC(C)(C)C)cc(-n3nc4ccccc4n3)c2O)c(O)c(-n2nc3ccccc3n2)c1`, which IC50 is on record?
Answer: > 46 µM

Question: For `CNC(=O)C(N)CSC(C)C1=C(C)c2cc3[n-]c(cc4nc(cc5[n-]c(cc1n2)c(C)c5CCC(=O)O)C(CCC(=O)O)=C4C)c(C)c3C(C)SCC(N)C(=O)NC.[Fe+2]` (stereo not given), which IC50 is on record?
Answer: > 46 µM

Question: How did the IC50 turn out when `O=c1[nH]cnc2nc[nH]c12` was run?
Answer: > 46 µM

Question: With `Oc1ccc(Cl)cc1Cc1ccccc1` as the compound, how does the IC50 read?
Answer: > 46 µM

Question: `Br.COc1c2c(cc3c1OCO3)CCN(C)C2` was tested. Which IC50 did it give?
Answer: > 46 µM

Question: For `O=C(C3)C(C(O)=CC(O[C@H]4[C@H](O)[C@@H](O)[C@H](O)[C@@H](CO[C@H]5[C@H](O)[C@H](O)[C@@H](O)[C@H](C)O5)O4)=C2)=C2O[C@@H]3[C@@]1=CC(O)=C(OC)C=C1`, which IC50 is on record?
Answer: > 46 µM
